Source: ChEMBL document CHEMBL5674850, “ASAP - Solubility” (2024)
Converted amounts (≈) assume the structure as drawn. “And” between values parts separate entries of the source, which are not always exact repeats. Identical values can stand only once.

Assay: Kinetic solubility of compound by measuring concentration at pH 7.4 in saturated PBS buffer by UV LCMS/MS using calibration curves. The assay has been performed by Enamine biological services, Bienta Ltd.The protocol is publicly available: dx.doi.org/10.17504/protocols.io.j8nlk8y41l5r/v1
Assay type: physicochemical
Conditions: for solubility kinetic: PBS buffer; for Solubility (mean): buffer

| Compound | solubility kinetic [µM] | other results |
| --- | --- | --- |
| O=C1Cc2cc(C(=O)Nc3ccc4c(c3)CNC4)ccc2N1 | 136 (≈ 39.9 µg/mL) |  |
| O=C(Nc1ccc2c(c1)CNC2)c1cc(Cl)cc2c1cnn2C1CCC1 | 172 (≈ 63.1 µg/mL) |  |
| CC(C)n1cc2c(C(=O)Nc3ccc4c(c3)CNC4)cc(Cl)cc2n1 | 181 (≈ 64.2 µg/mL) |  |
| CNC(=O)[C@H](Nc1ccc2c(c1)CNC2)c1cc(Cl)cc2[nH]c(-c3ccccc3)nc12 | 178 (≈ 76.9 µg/mL) |  |
| Cc1cc(-c2ccc([C@@H](NC(=O)OCc3ccccc3)C(=O)Nc3cccc(CN)c3)cc2)cs1 | 8 (≈ 3.88 µg/mL) |  |
| NCCc1ccc(NC(=O)c2cc(Cl)cc(NC(=O)OCc3ccccc3)c2)cc1 | 88 (≈ 37.3 µg/mL) |  |
| CCCC[C@@H](NC(=O)OC(C)(C)C)C(=O)N[C@@H](C(=O)NCc1ccc(CN)cc1)c1ccc(OCc2ccccc2)cc1 | 143 (≈ 84.2 µg/mL) |  |
| O=C(Nc1cc2c(cc1Br)CNC2)c1cc(F)cc2[nH]ncc12 | 47 (≈ 17.6 µg/mL) |  |
| O=C(Nc1ccc2c(c1)CNC2)c1cc(F)cc2c1CCC2 | 187 (≈ 55.4 µg/mL) |  |
| COCc1cc(Cl)cc([C@H](Nc2ccc3c(c2)CNC3)C(=O)NCC(F)F)c1 | 192 (≈ 78.7 µg/mL) |  |
| Cn1cc2c(C(=O)Nc3ccc4c(c3)CNC4)cc(F)cc2n1 | 309 (≈ 95.9 µg/mL) |  |
| O=C(Nc1cc(Cl)cc(C(=O)Nc2n[nH]c3c2CNC3)c1)OCc1ccccc1 | 26 (≈ 10.7 µg/mL) |  |
| NCc1cc(C(=O)O)cc([C@@H]2C[C@H]2c2cc(Cl)cc(NC(=O)OCc3ccccc3)c2)c1 | 52 (≈ 23.4 µg/mL) |  |
| O=C1Cc2c(cccc2C(=O)Nc2ccc3c(c2)CNC3)N1 | 152 (≈ 44.6 µg/mL) |  |
| CO[C@H]1C[C@H](n2ncc3c(C(=O)Nc4ccc5c(c4)CNC5)cc(Cl)cc32)C1 | 340 (≈ 135 µg/mL) |  |
| OCC#C[C@H](Nc1ccc2c(c1)CNC2)c1cc(Cl)cc2[nH]ncc12 | 135 (≈ 47.6 µg/mL) |  |
| O=C(N[C@H]1[C@H]2CCCCC[C@H]2[C@H]1C(=O)Nc1cccc(C2CCNCC2)c1)OCc1ccccc1 | 49 (≈ 23.3 µg/mL) |  |
| O=C(/C=C/c1ccccc1)C(=O)N1CCN(CCc2ccccc2)CC1 | 239 (≈ 83.3 µg/mL) |  |
| COc1cc(C#N)cc([C@H](Nc2ccc3c(c2)CNC3)C(=O)NCC(F)F)c1 | 381 (≈ 147 µg/mL) |  |
| O=C(O)c1cc(Cl)ccc1NS(=O)(=O)c1ccc(Oc2ccccc2Cl)cc1 | 369 (≈ 162 µg/mL) |  |
| O=C(Nc1cc(Cl)cc(C(=O)Nc2cccc(-c3nnn[nH]3)c2)c1)OCc1ccccc1 | 65 (≈ 29.2 µg/mL) |  |

| Compound | solubility kinetic [µM] | other results |
| --- | --- | --- |
| CC(C)NC(=O)[C@H](Nc1ccc2c(c1)CNC2)c1cc(Cl)cc2[nH]ncc12 | 311 (≈ 119 µg/mL) |  |
| Cn1ncc2c(C(=O)Nc3ccc4c(c3)CNC4)cc(Cl)cc21 | ≥ 400 |  |
| O=C(NCC(F)F)[C@H](Nc1cc2c(cc1Br)CNC2)c1cc(Cl)cc(C2CC2)c1 | 333 (≈ 161 µg/mL) |  |
| Cc1cc([C@H](Nc2ccc3c(c2)CNC3)C(=O)NCC(F)F)cc(C(F)(F)F)c1 | ≥ 400 |  |
| O=C(NCCCF)[C@H](Nc1ccc2c(c1)CNC2)c1cc(Cl)cc(C2CC2)c1 | 394 (≈ 158 µg/mL) |  |
| CC(C)NC(=O)[C@H](Nc1ccc2c(c1)CNC2)c1cc(Cl)cc2[nH]c(-c3ccccc3)nc12 | 154 (≈ 70.8 µg/mL) | Solubility (mean): 134 µM (≈ 61.6 µg/mL) |
| O=C(Nc1cc2c(c(C3=CCS(=O)(=O)CC3)c1)CNC2)c1cc(F)cc2[nH]ncc12 | 141 (≈ 60.1 µg/mL) |  |
| O=C(NCC(F)F)[C@H](Nc1ccc2c(c1)CNC2)c1cc(Cl)cc(C2CC2)c1 |  | Solubility (mean): 367 µM and 326 µM; Solubility (mean) (ph 7.5): 139 µM (≈ 56.4 µg/mL) |
| O=C(O)c1cc(Cl)c(F)cc1S(=O)(=O)Nc1ccc(Oc2ccccc2Cl)cc1 | 396 (≈ 181 µg/mL) |  |
| O=C(Nc1cc(Cl)cc(-c2ccc3[nH]c(C(=O)O)cc3c2)c1)OCc1ccccc1 | 356 (≈ 150 µg/mL) |  |
| C=CC[C@H](Nc1cccc(-c2nn[nH]n2)c1)c1cc(Cl)cc(NC(=O)OCc2ccccc2)c1 | 332 (≈ 158 µg/mL) |  |
| O=C(O)c1cc(Cl)ccc1S(=O)(=O)NC1CCN(c2nc(C3CC3)cc(C(F)(F)F)n2)CC1 | 380 (≈ 192 µg/mL) |  |
| O=C(Nc1cc(Cl)cc(C(=O)Nc2ccc3c(c2)CNC3)c1)OCc1ccccc1 | 35 (≈ 14.8 µg/mL) |  |
| N#Cc1cccc(-c2nc3c(C(=O)Nc4ccc5c(c4)CNC5)cc(F)cc3[nH]2)c1 | 3 (≈ 1.19 µg/mL) |  |
| O=C(Nc1cc2c(c(-c3c[nH]c(=O)c(F)c3)c1)CNC2)c1cc(F)cc2[nH]ncc12 | 66 (≈ 26.9 µg/mL) |  |
| O=C1Cc2c(cc(F)cc2C(=O)Nc2ccc3c(c2)CNC3)N1 | 368 (≈ 115 µg/mL) |  |
| O=C(Nc1ccc2c(c1)CNC2)c1cc(Br)cc2[nH]c(-c3ccccc3)nc12 | ≤ 2 |  |
| O=C(O)COc1cccc(NC(=O)c2cc(Cl)cc(NC(=O)OCc3ccccc3)c2)c1 | 360 (≈ 164 µg/mL) |  |
| O=C(NCC(F)F)[C@H](Nc1cnc2c(c1)CNC2)c1cc(Cl)cc(C2CC2)c1 | 362 (≈ 147 µg/mL) |  |
| CNC(=O)[C@H](Nc1cc(CN)cc(C(=O)O)c1)c1cc(Cl)cc(C2CC2)c1 | 335 (≈ 130 µg/mL) |  |
| COc1cc(Cl)cc([C@H](Nc2ccc3c(c2)CNC3)C(=O)NCC(F)F)c1 | ≥ 400 |  |

| Compound | solubility kinetic [µM] | other results |
| --- | --- | --- |
| COc1cc(Cc2c(-c3ccc(F)cc3)noc2C)nc(N2CCNCC2)n1 | 325 (≈ 125 µg/mL) |  |
| CNC(=O)c1cc(Cl)c(F)cc1NS(=O)(=O)c1ccc(Oc2ccccc2Cl)cc1 | 49 (≈ 23 µg/mL) |  |
| N#C[C@H](Nc1cccc(-c2nn[nH]n2)c1)c1cc(Cl)cc(NC(=O)OCc2ccccc2)c1 | 344 (≈ 158 µg/mL) |  |
| CNC(=O)c1cc(Cl)ccc1NS(=O)(=O)c1ccc(Oc2ccccc2Cl)cc1 | 25 (≈ 11.3 µg/mL) |  |
| O=C(Nc1ccc2c(c1)CNC2)c1cc(Cl)cc2c1CCC2 | 335 (≈ 105 µg/mL) |  |
| O=C(Nc1ccc2c(c1)CNC2)c1cc(F)cc2[nH]c(-c3ccc(F)cc3)nc12 | 6 (≈ 2.34 µg/mL) |  |
| O=C(NCC(F)F)[C@H](Nc1ccc2c(c1)CNC2)c1cc(Cl)cc2ccoc12 | 187 (≈ 75.9 µg/mL) |  |
| O=C(O)Cn1ncc2cc(-c3cc(Cl)cc(NC(=O)OCc4ccccc4)c3)ccc21 | 131 (≈ 57.1 µg/mL) |  |
| NCc1cccc(NC(=O)C[C@@H](NC(=O)OCc2ccccc2)c2ccc(OCc3ccccc3)cc2)c1 | 17 (≈ 8.66 µg/mL) |  |
| O=C(Nc1ccc2c(c1)CNC2)c1cc(Cl)cc2cn[nH]c12 | 184 (≈ 57.5 µg/mL) |  |
| O=C(Nc1ccc2c(c1)CNC2)c1cc(F)cc(-c2cn[nH]c2)c1 | 185 (≈ 59.6 µg/mL) | Solubility (mean): 184 µM (≈ 59.3 µg/mL) |
| COc1cc(-c2cc(NC(=O)c3cc(F)cc4[nH]ncc34)cc3c2CNC3)ccn1 | 180 (≈ 72.6 µg/mL) |  |
| CNC(=O)[C@H](Nc1ccc2c(c1)CNC2)c1cc(Cl)cc(C2CC2)c1 | 358 (≈ 127 µg/mL) |  |
| CNC(=O)[C@H](Nc1cccc(-c2nn[nH]n2)c1)c1cc(Cl)cc2[nH]ncc12 | 347 (≈ 133 µg/mL) |  |
| O=C(O)c1cc(Cl)ccc1NS(=O)(=O)c1ccc(-c2ccccc2Cl)cc1 | 397 (≈ 168 µg/mL) |  |
| NCc1cccc(NC(=O)c2cc(Cl)cc(NC(=O)OCc3ccccc3)c2)c1 | 89 (≈ 36.5 µg/mL) |  |
| NCc1cccc([C@@H]2C[C@H]2c2cc(Cl)cc(NC(=O)OCc3ccccc3)c2)c1 | 50 (≈ 20.3 µg/mL) |  |
| O=C(Nc1cc2c(c(C3=CCOCC3)c1)CNC2)c1cc(F)cc2[nH]ncc12 | 157 (≈ 59.4 µg/mL) |  |
| c1ccc2sc(C3CCN(Cc4c[nH]c5ccccc45)CC3)nc2c1 | 119 (≈ 41.4 µg/mL) |  |
| CCc1cc(C(=O)Nc2cccc(CN)c2)sc1-c1ccc(Cl)cc1 | 7 (≈ 2.6 µg/mL) |  |
| O=C(Nc1ccc2c(c1)CNC2)c1ccc2[nH]cc(C3CCNCC3)c2c1 | 377 (≈ 136 µg/mL) |  |

| Compound | solubility kinetic [µM] | other results |
| --- | --- | --- |
| O=C(NCC(F)(F)F)c1cc(Cl)c(F)cc1NS(=O)(=O)c1ccc(Oc2ccccc2Cl)cc1 | 14 (≈ 7.52 µg/mL) |  |
| CSc1cc2c(cc1NC(=O)c1cc(F)cc3[nH]ncc13)CNC2 | 392 (≈ 134 µg/mL) |  |
| O=C(Nc1ccc2c(c1)CNC2)c1cccc2[nH]c(C(F)(F)F)cc12 | 372 (≈ 128 µg/mL) |  |
| N#Cc1cc2c(cc1NC(=O)c1cc(F)cc3[nH]ncc13)CNC2 | 191 (≈ 61.4 µg/mL) | Solubility (mean): 193 µM (≈ 62 µg/mL) |
| O=C(NCC(F)F)[C@H](Nc1ccc2c(c1)CNC2)c1cc(Cl)cc2c1CCC2 | ≥ 400 |  |
| CCOc1cccc(-c2ccc(S(=O)(=O)Nc3ccc(Cl)cc3C(=O)O)cc2)c1 | 392 (≈ 169 µg/mL) |  |
| CN(c1ccc2c(c1)CNC2)[C@H](C(=O)NCC(F)F)c1cc(Cl)cc(C2CC2)c1 | 172 (≈ 72.2 µg/mL) |  |
| N#C[C@H](Nc1cccc(C(=O)O)c1)c1cc(Cl)cc2[nH]ncc12 | 112 (≈ 36.6 µg/mL) |  |
| NCc1cccc(NC(=O)C[C@H](NC(=O)OCc2ccccc2)c2ccc(OCc3ccccc3)c(Br)c2)c1 | 21 (≈ 12.4 µg/mL) |  |
| CC[C@@H](Cc1nnn[nH]1)c1ccc(NC(=O)c2cc(Cl)cc(NC(=O)OCc3ccccc3)c2)cc1 | 60 (≈ 30.3 µg/mL) |  |
| NCc1cccc(NC(=O)c2cccn3cc(CN4CCCC4)nc23)c1 | 332 (≈ 116 µg/mL) |  |
| NCc1cccc(NC(=O)c2cc(Cl)cc(CN)c2)c1 | 375 (≈ 109 µg/mL) |  |
| CC(C)c1nc2c(C(=O)Nc3cccc(CN)c3)cccc2[nH]1 | 316 (≈ 97.4 µg/mL) |  |
| Cc1cc(OCc2ccccc2)ccc1NS(=O)(=O)c1ccc(Cl)cc1C(=O)O | 394 (≈ 170 µg/mL) |  |
| O=C(Nc1cc2c(cc1C1CC1)CNC2)c1cc(F)cc2[nH]ncc12 | 189 (≈ 63.6 µg/mL) |  |
| NCc1cccc(NC(=O)[C@@H](NC(=O)OCc2ccccc2)c2ccc(OCc3ccccc3)cc2)c1 | 23 (≈ 11.4 µg/mL) |  |
| C=CC[C@H]1NCc2cc(NC(=O)c3cc(F)cc4[nH]ncc34)ccc21 | 356 (≈ 120 µg/mL) |  |
| CNC(=O)[C@H](Nc1cc(CN)cc(-c2nn[nH]n2)c1)c1cc(Cl)cc(C2CC2)c1 | 352 (≈ 145 µg/mL) |  |
| O=C(Nc1cc(Br)c2c(c1)CNC2)c1cc(F)cc2[nH]ncc12 | 4 (≈ 1.5 µg/mL) |  |
